In patent publication US11497212B2, “Substituted thiophenyl uracils, salts thereof and the use thereof as herbicidal agents” (Syngenta Crop Protection AG, priority 2017, dated 2022):

Key:
Format in all cases: in vivo
Glycine max = assay: Crop compatibility post-emergence (greenhouse pot trial); conditions: application rate 20 g/ha
How it was run: (§1)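 Crops grown in sandy loam in greenhouse, sprayed at one-leaf stage (2–3 weeks after sowing) with WP or EC formulations in water plus 0.5% additive, 600 L/ha. Damage scored visually after about 3 weeks versus untreated controls, 0% = like control, 100% = dead.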

Oryza sativa = assay: as above; conditions: application rate 20 g/ha
How it was run: as §1

Triticum aestivum = assay: as above; conditions: application rate 20 g/ha
How it was run: as §1

Zea mays = assay: as above; conditions: application rate 20 g/ha
How it was run: as §1

Pharbitis purpurea = assay: Herbicidal action post-emergence (greenhouse pot trial); conditions: application rate 20 g/ha
How it was run: (§2)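 Percent herbicidal efficacy, assessed by eye about 3 weeks after spraying, compares treated with untreated plants. Treatment is a post-emergence spray at the one-leaf stage, using a WP or EC preparation plus 0.5% additive in 600 L/ha of water, at 80 g/ha or lower.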

Veronica persica = assay: as above; conditions: application rate 20 g/ha
How it was run: as §2

Viola tricolor = assay: as above; conditions: application rate 20 g/ha
How it was run: as §2

Amaranthus retroflexus = assay: as above; conditions: application rate 20 g/ha, scored visually after about 3 weeks vs untreated controls
How it was run: as §2

Abutilon theophrasti = assay: as above; conditions: application rate 20 g/ha, scored visually after about 3 weeks vs untreated controls
How it was run: as §2

Setaria viridis = assay: as above; conditions: application rate 20 g/ha, scored visually after about 3 weeks vs untreated controls
How it was run: as §2

Matricaria inodora = assay: as above; conditions: application rate 20 g/ha, scored visually after about 3 weeks vs untreated controls
How it was run: as §2

Polygonum convolvulus = assay: as above; conditions: application rate 20 g/ha, scored visually after about 3 weeks vs untreated controls
How it was run: as §2

Row | Glycine max (Efficacy in %) (Glycine max) [%] | Oryza sativa (Efficacy in %) (Oryza sativa) [%] | Triticum aestivum (Efficacy in %) (Triticum aestivum) [%] | Zea mays (Efficacy in %) (Zea mays) [%] | Compound | Pharbitis purpurea (Efficacy in %) (Pharbitis purpurea) [%] | Veronica persica (Efficacy in %) (Veronica persica) [%] | Viola tricolor (Efficacy in %) (Viola tricolor) [%] | Amaranthus retroflexus (Efficacy in %) (Amaranthus retroflexus) [%] | Abutilon theophrasti (Efficacy in %) (Abutilon theophrasti) [%] | Setaria viridis (Efficacy in %) (Setaria viridis) [%] | Matricaria inodora (Efficacy in %) (Matricaria inodora) [%] | Polygonum convolvulus (Efficacy in %) (Polygonum convolvulus) [%]
1 | 20 | 0 | 20 | 20 | Cc1c(C(F)(F)F)n(C)c(=O)n(-c2cc(SC(CC(C)C)C(=O)OCC3CCCCO3)c(Cl)cc2F)c1=O (centres unmarked) [I.14-91] | 80 | 100 | 100 | 100 | 100 | – | – | –
2 | 20 | 0 | 20 | – | Cc1c(C(F)(F)F)n(C)c(=O)n(-c2cc(SC(CC(C)C)C(=O)OCC3CCOC3)c(Cl)cc2F)c1=O (centres unmarked) [I.14-72] | 80 | 100 | 100 | 100 | 80 | 100 | 80 | 80
